From US20240180881A1, “METHODS FOR DECREASING RESISTANCE TO CHEMOTHERAPY” (National Institute of Immunology, priority 2022, published 2024)
Where a name gives a salt, the structure may show the parent alone. Read-outs that look alike come from different tables or passages of the source. Each block holds one compound with its values, some of them ahead of it.

How the values were obtained:
[1] = biological target: T1, BLM-RAD54 interaction (BLM F2 and N-RAD54 F1) (Homo sapiens, UniProt Q92698); test: Renilla luciferase-based protein complementation assay (PCA); format: cell-based
T1 construct: expressed in transfected cells; host or cells: HEK293T
T1 sequence (Q92698 1-212): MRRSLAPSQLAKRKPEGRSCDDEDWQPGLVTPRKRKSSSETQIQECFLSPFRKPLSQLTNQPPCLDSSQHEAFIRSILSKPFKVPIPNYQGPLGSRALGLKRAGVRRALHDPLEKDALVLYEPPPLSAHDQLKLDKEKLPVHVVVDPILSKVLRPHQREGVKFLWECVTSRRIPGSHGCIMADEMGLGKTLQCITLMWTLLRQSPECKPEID
Description: Specifically, N-RAD54-F1, C-RAD54-F1, BLM-F1 and BLM-F2 were transfected in HEK293T. Forty-eight hours post-transfection, Renilla luciferase-based PCA were carried out with the indicated combination of the expressed proteins. The experiment was repeated three times. Mean±S.D.
Using the Renilla luciferase-based protein complementation assay described earlier, 1280 FDA/EMA approved small molecules present in Prestwick chemical library were screened for their ability to disrupt BLM-RAD54 interaction. Each of the small molecules was incubated with HEK293T cells expressing BLM-F2 and N-RAD54-F1. Compared to cells expressing only BLM-F2 and N-RAD54-F1, the decrease in Renilla luciferase intensity in presence of each small molecule was monitored. Percentage disruption of the interaction between BLM F2 and N-RAD54 F1 was plotted in form of heatmap. The disruption of the BLM-RAD54 interaction was determined by a decrease in the Renilla luciferase activity as compared to control untreated cells.
The percentage disruption of the interaction between BLM F2 and N-RAD54 F1 was plotted as a non-linear regression line. The data was from three independent experiments.
Renilla Luciferase (Rlu) based Protein complementation assay was carried out as described in (Stefan et al., 2007). For preliminary screening of the Prestwick Chemical Library (containing 1280 FDA/EMA approved small molecules), HEK293T cells were seeded in the 6-well plates a day prior to the transfection. Next day the cells were transfected by 2 μg each of pcDNA3.1 N-RAD54 F1, pcDNA3.1 C-RAD54 F1, pcDNA3.1 BLM F1, pcDNA3.1 BLM F2 plasmids (alone or in different combinations) using Lipofectamine 2000 (according to the manufacturer's protocol). 36 hours post-transfection, approximately […] cells were seeded in a 96-well plate and incubated at 37° C. for 2 hour with or without 10 μM of the 1280 small molecules present in the library. 10 μM of Coenleterazine h was added into each well and Rluc activity was monitored for the first 10 seconds in Varioskan Microplate Reader (Thermo Fisher Scientific). The validation screen was performed with 17 small molecules at 100 μM, 10 μM, 1 μM, 100 nM, 10 nM and 1 nM concentrations. The percentage reduction in the protein-protein interaction was then calculated as compared to the control wells (without any small molecule).

[2] = test system: HCT116 WT cells; test: MTT assay, chemotherapeutic drug gradient with or without disruptor; format: cell-based
Description: (§1) The three resistant lines and their wildtype counterpart HCT116 were exposed to a gradient of CPT, CDDP or 1-OHP.
(§2) Concentrations of CPT used: 0.140 nM, 20 nM, 50 nM, 1000 nM. Concentration of 1-OHP: 0.14 μM, 2 μM, 4 μM, 6 μM, 8 μM. Concentrations of CDDP used: 0.140 μM, 2 μM, 5 μM, 10 μM. The percentage of viable cells were determined by MTT assays (FIG. 12A-12C). The data in FIG. 12A and FIG. 12C is from three independent experiments and the data in FIG. 12B is from nine independent experiments. […] The levels of MRP2, MRP3, MRP5, MXR were quantitated from three independent experiments. […] Specifically, HCT116 IC60 CPTR cells were transfected with the HR substrate for 72 hours and the levels of HR was determined (FIG. 6A). The data is from three independent experiments. […] The number of soft agar colonies in each condition were counted. The data is from three independent experiments.
To generate camptothecin and cisplatin resistant cells (named as HCT116 IC60 CPT^R, HCT116 IC60 CDDP^R respectively), HCT116 wild type were seeded in a 10 cm dish to a confluency of 80%. The IC20 concentrations of cisplatin (3.38 μM) and camptothecin (12.6 nM) was added for 2 hours and 6 hours, respectively. Post treatment, the cells were washed twice with 1×PBS and fresh media was added. After every 48 hours, the media was changed and IC20 concentration of the drugs were added only if the confluency of cells was at least 80%. […] Resistant index was calculated using the following formula: Resistant index=IC60 of the resistant cells/IC60 of the parental cells.
Cells were seeded in a 96-well plate overnight. Next day, the culturing media was replaced with Optimem media, followed by incubation with BLM_CPP or SCM_CPP for 1 hr. The final concentrations of the peptides were 450 nM for cisplatin (CDDP) and 180 nM (for all other drugs). […] Post treatment, the cells were washed with 1×PBS and fresh media was added. After 72 hours, MTT assay was carried out to determine the percentage cell viability of the cells with respect to the untreated cells.

[3] = test system: HCT116 IC60 CPTR cells; test: MTT assay, CPT gradient with or without disruptor; format: cell-based; conditions: Homo sapiens, HCT-116, CPT gradient alone, 72 hours, read-out: EC50 (μM), HCT116 WT CPT^R
Description: as §1, §2
To generate camptothecin and cisplatin resistant cells (named as HCT116 IC60 CPT^R, HCT116 IC60 CDDP^R respectively), HCT116 wild type were seeded in a 10 cm dish to a confluency of 80%. The IC20 concentrations of cisplatin (3.38 μM) and camptothecin (12.6 nM) was added for 2 hours and 6 hours, respectively. […] Resistant index was calculated using the following formula: Resistant index=IC60 of the resistant cells/IC60 of the parental cells. […]

[4] = biological target: T2, RAD54 ATPase activity (Homo sapiens, UniProt Q92698); test: ATPase assay; format: biochemical; conditions: peptide gradient 180 nM, 360 nM, 540 nM
T2 construct: made in house; host or cells: E. coli BL-21 DE3
T2 sequence (Q92698 1-747): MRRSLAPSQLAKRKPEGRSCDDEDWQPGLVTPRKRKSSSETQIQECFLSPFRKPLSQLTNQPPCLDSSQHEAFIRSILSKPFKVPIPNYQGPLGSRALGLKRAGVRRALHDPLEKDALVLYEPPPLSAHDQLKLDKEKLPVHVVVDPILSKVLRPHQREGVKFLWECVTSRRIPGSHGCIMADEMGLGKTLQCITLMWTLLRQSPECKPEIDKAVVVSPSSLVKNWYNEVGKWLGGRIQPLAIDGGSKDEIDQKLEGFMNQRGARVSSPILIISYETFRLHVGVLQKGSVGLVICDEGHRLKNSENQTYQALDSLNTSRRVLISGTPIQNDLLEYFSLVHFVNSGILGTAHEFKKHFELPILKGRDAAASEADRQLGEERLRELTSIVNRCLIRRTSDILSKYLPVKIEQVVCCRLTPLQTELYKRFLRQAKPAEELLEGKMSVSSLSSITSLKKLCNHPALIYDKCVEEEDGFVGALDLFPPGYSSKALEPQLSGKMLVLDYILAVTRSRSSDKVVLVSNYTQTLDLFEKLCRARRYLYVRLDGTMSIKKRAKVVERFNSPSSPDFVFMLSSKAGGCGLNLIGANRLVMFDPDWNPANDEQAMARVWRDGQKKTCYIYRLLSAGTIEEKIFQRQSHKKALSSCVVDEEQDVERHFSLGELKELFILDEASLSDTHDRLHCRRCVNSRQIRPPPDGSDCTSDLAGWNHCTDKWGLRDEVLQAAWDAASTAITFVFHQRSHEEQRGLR
Description: The data is from three independent experiments. Mean±S.D.
(§3) The presence of the disruptors also led to a decrease in the ATP binding to RAD54.
Assay for RAD54 ATPase activity was carried out as per the previously published protocol (Srivastava et al., 2009). His-RAD54 (120 nM) was incubated with the GST-BLM (1-212) or BLM_peptide or SCM_peptide (180 nM). […] 1 μl of the sample was spotted on the polyethyleneimine-coated TLC plate, resolved in 1M Formic Acid and 0.3M LiCl. The products of ATP hydrolysis were then visualized by Phosphoimager scans taken in Typhoon™ laser-scanner platform (Cytiva) and quantitated using the inbuilt software.

[5] = biological target: T3, RAD54 (Homo sapiens, UniProt Q92698); test: ATP binding assay; format: biochemical; conditions: 180 nM peptide
T3 construct: GST RAD54 (1-747) (WT); made in house; host or cells: E. coli BL-21 DE3
T3 sequence (Q92698 1-747): T2 sequence (Q92698 1-747)
Description: The quantitation of the ATP binding assay was carried out using RAD54 WT, RAD54 WT+BLM_peptide, and RAD54 WT+SCM_peptide. The data is from three independent experiments. Mean±S.D.
as §3
A 20 μl reaction was set up with 120 nM of GST-RAD54 and 180 nM of either BLM_peptide or SCM_peptide or BLM (1-212) using 4 μl of 5×ATP binding assay buffer (100 mM Tris-Cl pH 7.5, 50 mM MgCl2, 10 mM MnCl2, 5 mM DTT) and 5 μCi of [γ^32P]dATP. […] Reactions were incubated at 30° C. for 20 minutes and were stopped with 10% TCA and samples were spotted on P81 phosphocellulose paper followed by washing of paper strips with 75 mM orthophosphoric acid. A minimum of 8 washes were given in 20 hrs of 1 hr each including a 12 hr wash. Following this, strips were dehydrated in ethanol for 10 min followed by liquid scintillation counting. Reactions without the substrate were spotted as control and the same process repeated.

[6] = biological target: T4, His-RAD54 WT (Homo sapiens, UniProt Q92698); test: Tryptophan fluorescence assay; format: binding; conditions: increasing amount of peptide
T4 construct: made in house; host or cells: E. coli BL-21 DE3
T4 sequence (Q92698 1-747): T2 sequence (Q92698 1-747)
Description: To determine how BLM peptide affects ATP binding and hydrolysis, tryptophan fluorescence assays were carried out using full-length recombinant RAD54 in presence of either BLM_peptide or SCM_peptide (FIG. 2H). Tryptophan fluorescence assays were carried out with RAD54 WT alone or RAD54 WT in presence of the indicated concentrations of either BLM_peptide (upper panel) or SCM_peptide (lower panel). The experiment was repeated three times and one representative experiment has been shown.
RAD54 fluorescence was measured in a fluorometer.
Tryptophan fluorescence measurements were performed on a Fluoromax Spectrofluorimeter (Horiba-Jobin Yvon Fluoromax 4). Recombinant His-RAD54 (500 nM) was excited at 280 nm and the emission intensity monitored at regular intervals from 295 nm to at least 450 nm.

[7] = biological target: T5, RAD54 chromatin remodeling activity (Homo sapiens, UniProt Q92698); test: REA assay on chromatinized MRP2 array; format: biochemical; conditions: 180 nM peptide, +ATP
T5 construct: GST RAD54 (1-747) (WT), GST BLM (1-1417) (WT), His RAD54 (1-747) (WT); made in house; host or cells: E. coli BL-21 DE3
T5 sequence (Q92698 1-747): T2 sequence (Q92698 1-747)
Excerpt: (§4) The data was from three independent experiments.
as §4
(§5) The data is from three independent experiments.

[8] = biological target: T5, RAD54 chromatin remodeling activity; test: Restriction enzyme accessibility (REA) assay on chromatinized G5E4 array; format: biochemical; conditions: 180 nM peptide, +ATP
Excerpt: as §5, §5

[9] = disruption of BLM F2 / N-RAD54 F1 interaction, HEK293T cells, 1 nM to 100 μM, read-out: EC50
[10] = HCT116, used to generate resistant cells

- EC50 [1, 9]: 16.7 ± 1.26 nM
Compound: COc1c2occc2c(OC)c2c(=O)cc(C)oc12 [C9, Khellin]

Compound: CC(C)CC1C(=O)N2CCC[C@H]2[C@]2(O)O[C@](NC(=O)[C@@H]3C=C4c5cccc6[nH]c(Br)c(c56)C[C@H]4N(C)C3)(C(C)C)C(=O)N12 (stereo partly drawn) [C12, Bromocryptine mesylate]
- EC50 [1]: 41.4 ± 4.46 nM

- EC50 [1, 9]: 6.75 ± 3.69 nM
Compound: Cc1cnc(C(=O)NCCc2ccc(S(=O)(=O)NC(=O)NC3CCCCC3)cc2)cn1 [C13, Glipizide]

- EC50 [1, 9]: 8.12 ± 3.89 nM
Compound: CC[C@H]1OC(=O)[C@H](C)[C@@H](O[C@H]2C[C@@](C)(OC)[C@@H](O)[C@H](C)O2)[C@H](C)[C@@H](O[C@@H]2O[C@H](C)C[C@H](N(C)C)[C@H]2O)[C@](C)(O)C[C@@H](C)C(=O)[C@H](C)[C@@H](O)[C@]1(C)O [C15, Erythromycin]

- EC50 [1, 9]: 26.4 ± 2.28 nM
Compound: Oc1c(Cl)cc(Cl)c2cccnc12 [C16, Chloroxine]

Compound: CC[C@@]1(O)C(=O)OCc2c1cc1n(c2=O)Cc2cc3ccccc3nc2-1 [CPT, camptothecin]
- IC40 concentration [2, 10]: 30.8 nM
- IC60 concentration [2, 10]: 92.6 nM
- EC50 ([2]; Homo sapiens, HCT-116, CPT gradient alone, MTT, 72 hours, read-out: EC50 (μM), HCT116 WT): 0.043 ± 0.0037 µM
- IC20 ([2]; Homo sapiens, HCT-116, HCT116 wild type, used to generate resistant cells, read-out: IC20 concentration): 12.6 nM
- EC50 [3]: 0.354 ± 0.00561 µM

- ATPase activity of RAD54 [4]: increased the ATPase activity of RAD54
- binding of ATP to RAD54 [5]: enhanced the binding of ATP to RAD54
Compound: BLM_peptide: BLM (181-212) peptide, sequence STAQKSKKGKRNFFKAQLYTTNTVKTDLPPPS
- tryptophan fluorescence of RAD54 [6]: progressively enhanced fluorescence quenching
- RAD54 mediated remodeling activity, fraction uncut [7]: enhanced RAD54 mediated remodeling activity on MRP2 substrate
- chromatin remodeling activity of RAD54, fraction uncut [8]: enhance the chromatin remodeling activity of RAD54, to the same extent as BLM (1-212)
